Assay results published in patent publication US11066378B2, “Caffeic acid derivatives for anti-angiogenesis” (Taipei Medical University, priority 2015, dated 2021).

Test system: HUVECs
Assay: Cell viability assay (MTT assay), growth inhibition of HUVECs
Assay type: cell-based, human
Conditions: Homo sapiens, HUVEC, 24 h, MTT assay, 24 h treatment, 5% FBS-stimulated HUVECs
Method: Human umbilical vein endothelial cells (HUVECs; #8000) were purchased from the ScienCell Research Laboratories (San Diego, Calif., USA). The cells were seeded on gelatin-coated culture dishes and grown in the commercial endothelial cell medium (#1001; ScienCell) containing 5% fetal bovine serum (FBS; #0025; ScienCell), 30 μg/mL endothelial cell growth supplements (ECGS; #1052; ScienCell), 100 units/mL penicillin G, and 100 μg/mL streptomycin sulfates (#0503; ScienCell). Cells at passage 3-6 were used for experiments. Mouse Lewis lung carcinoma cell line 1 (LLC1; #60050) was bought from the Food Industry Research and Development Institute (Hsinchu, Taiwan) and cultured in Gibco® Dulbecco's modified Eagle's medium (#12800-017; Invitrogen, Carlsbad, Calif., USA) supplemented with 10% FBS (HyClone, Logan, Utah, USA), 4 mM L-glutamine, 1.5 g/L sodium bicarbonate, 100 units/mL penicillin G, and 100 μg/mL streptomycin. All cells were incubated in a humidified 5% CO2 atmosphere at 37° C. and culture media was changed every 2˜3 days.
The experiments were performed according to our previous study with minor modifications (Pan et al., 2010). Briefly, the cells (2×10^4 cells/well) were seeded and grown under normal culture medium for 24 h. After another 24 h of starvation with 0.5% FBS, the cells were treated with several concentrations (1, 2, 4, 8, and 16 μM) of the tested compounds for 24 h and then incubated with 5 mg/mL of MTT (3-[4,5-dimethyl thiazol-2-yl]-2,5-diphenyl tetrazolium bromide) for 2 h. After that, the cells were washed with 1×PBS and then dimethyl sulfoxide (DMSO) was added to each well. Absorbance values at 570 nm were determined for each well using 650 nm as the reference wavelength. The absorbance of the control group (treated with 5% or 10% FBS alone) was defined as 100%.

SMILES: COc1cc([C@H]2Oc3c(OC)cc(/C=C/C=O)cc3[C@@H]2C)ccc1O [K20A]
- GI50: 24 µM

SMILES: COC(=O)/C=C/c1cc(OC(C)=O)c2oc(-c3ccc(OC(C)=O)c(OC(C)=O)c3)c(C(=O)OC)c2c1 [K20B]
- GI50: 24 µM

SMILES: COC(=O)/C=C/c1ccc(O)c(O)c1 [Methyl caffeate, reference compound]
- GI50: 80 µM

SMILES: COC(=O)/C=C/c1cc(OC)c2c(c1)[C@H](C(=O)OC)[C@@H](c1ccc(O)c(OC)c1)O2 [K20L]
- GI50: 32 µM
